Measured values published in patent publication US8853274B1, “Compositions and methods for targeting glioblastomas cells” (Vanderbilt University, priority 2011, dated 2014).

Assays:
[1] = tested on: intracranial T4302 tumors; assay: Orthotopic GBM model, survival and tumor burden; format: in vivo, Athymic nude mice
Description: (A, B) T4302 CD133+ cells were treated with 100 nM GSI±FTI for 48 hours and lysed in RIPA buffer. Mice bearing intracranial T4302 tumors were orally treated with 30 mg/kg/day GSI once a day (q.d.)±100 mg/kg/day FTI twice a day (b.i.d.) for 7 days. Brains were resected and homogenized in RIPA buffer. All lysates were blotted with an antibody specific to prelamin A. (B) Additional brains were fixed and resected for IHC staining for cleaved Notch1. (C) T4302 CD133+ cells were infected with lentivirus expressing firefly luciferase and selected with puromycin for two days. Athymic nude mice were intracranially implanted with 5,000 cells, maintained for 10 days, and treated with GSI±FTI for 20 days as described above. In a separated experiment, animals were treated by the same protocol, except they were given 2 doses of 4 Gy X-ray irradiation on day 11 and day 12, 4 hours after drug administration. These mice were on drugs for 30 days. The median survival was calculated by the GraphPad Prism 5 software. (D) Animals in the unirradiated experiment were tracked for their tumor progression by bioluminescence imaging. The Y axis is set in a log scale. (E,F) The survival curves of these two experiments are shown.
Mice were first anesthetized using an isoflurane inhalation system and maintained on the nose cone during the procedure. 5,000 CD 133+ GSC cells suspended in 10 μl PBS were implanted into the right cerebrum with 30 gauge needles. Animals were maintained for 10 days to allow tumor establishment. Before treatment, any mouse showing distress or neurological signs (e.g. lethargy, hemiparesis, ataxia, seizures) would be euthanized. The remaining mice will be randomized to treatment groups just prior to treatment. […]
Mice were weighted and visually inspected daily once treatments begin. Tumor development was monitored by bioluminescence imaging every week. […] The primary readout of the in vivo tests is the median survival calculated by the Kaplan-Meier estimator using the GraphPad Prism5 software. Drug efficacy was also be assessed by tumor sizes estimated by bioluminescence imaging.

Akt = assay: Immunoblot of Akt phosphorylation in T4302 CD133+ cells; format: cell-based, human; conditions: 200 nM, ±radiation, 2 days
Description: (A) T4302 CD133+ cells were treated with 200 nM RO4929097 (GSI), and irradiated 4 hours later. Cells were cultured for two days and lysed for immunoblotting. (B) T4302 CD133+ cells were treated with 200 nM GSI or FTI±radiation. Cells were lysed 2 days after treatment. (C) T4302 CD133+ cells were treated with 200 nM GSI±FTI for 24 hours, and left under normoxia or in 2% O2 for 16 hours before being lysed for immunoblotting.

T4302 CD133+ cells = assay: Caspase 3/7 activation (apoptosis); format: cell-based, human; conditions: 100 nM, day 3
Description: (A) T4302 CD133+ GBM stem cells were enriched from freshly collected subcutaneous xenograft tumors, cultured in stem cell media. Cells were left unirradiated or irradiated at 3 Gy. The relative mRNA levels of Hes2 were determined by quantitative real-time PCR at the time points as indicated. (B) T4302 CD133+ cells were pre-treated with vehicle (DMSO), 2 μM DAPT or 0.5 μM L685,458 for 4 hours and irradiated as indicated. Cells were then plated to form neurospheres. Fourteen days after plating, neurospheres containing more than 50 cells were scored. To determine the surviving fractions, the number of neurosphere at each radiation dose was normalized to that of the corresponding sham-irradiated group. (C) T4302 CD133+ cells were treated with GSIs±radiation as indicated. Relative caspase 3/7 activities were determined by normalizing caspase activities to the corresponding cell numbers. (D), (E) T4302 CD133+ cells were infected with lentivirus directing expression of non-targeting shRNA or shRNAs specific to Notch1 or Notch2 (KD-Notch1 or KD-Notch2), and selected with puromycin. Relative caspase 3/7 activities and clonogenic survival were determined as described above. (F) T4302 CD133+ cells were infected with control lentivirus or lentivirus directing expression of NICD2. Clonogenic survival was determined as described above. *: p<0.05 by Student's t-test; #: p<0.01 by one-way ANOVA.
(A, B) T4302 CD133+ cells were treated with 100 nM RO4929097 (GSI) and/or 100 nM tipifarnib (FTI) for 4 hours prior to 3 Gy radiation. (A) Cell growth on day 5 and (B) caspase 3/7 activation on day 3 were determined as described in FIG. 4. #: p<0.001 by one-way ANOVA, combo vs. single agents. (C) The effects of GSIs and FTI against growth of T4302 CD133− cells were determined as described in panel A. (D, E) T4302 CD133+ cells were treated with GSI, FTI, or a 1:1 mixture at different concentrations (ranging from 3000 nM to ˜0.5 nM, 1:3 dilution)±3 Gy radiation. Cell viability was determined at 5 days after treatment in comparison to vehicle-treated groups. […] (F) T4302 CD 133+ cells were treated by GSI±FTI with a 2-fold dilution. Neurospheres were countered on day 10, and normalized to the vehicle-treated group.

CC(C)(C(=O)NCC(F)(F)C(F)(F)F)C(=O)N[C@@H]1C(=O)Nc2ccccc2-c2ccccc21 [RO4929097]
survival benefit, in words ([1]; unirradiated, 20 days oral treatment): did not produce significant benefits
survival benefit, in words ([1]; with 2 doses of 4 Gy local X-ray, 30 days oral treatment): some modest effects
mice free of tumor burden / sustained control of orthotopic GBM ([1]; with radiation, ~day 80): 1 out of 8
Akt activity (phosphorylation at serine 473 and threonine 308) (Akt): stronger Akt inhibition in irradiated cells than in unirradiated cells
caspase 3/7 activation, in words (T4302 CD133+ cells; absence of radiation): without apparent activation of apoptosis
increase of caspase 3/7 activity compared with the sham-treated group (T4302 CD133+ cells; following 3-Gy radiation): approximately 2 fold
